According to paper PMC7873226, “Molecular mechanism and structural basis of small-molecule modulation of the gating of acid-sensing ion channel 1” (Communications Biology, 2021):
Positions count from the first letter of the chain named. Each block holds one molecule with its values, some of them ahead of it.

Assays:
rat ASIC1a = biological target: T1, rat ASIC1a (Rattus norvegicus, UniProt P55926); experiment: Kinetics of onset of and recovery (wash) from compound inhibition; type: cell-based; details: for time constant of current inhibition: holding pH 8.2, pH 6.0 test pulses; for pH 6.8-induced current, % pH7.4 control: holding pH 7.4, one cell; for pH 6.8-induced current, % pH8.2 control: holding pH 8.2, one cell; for max - % pH7.4 or 8.2 Control (Y): maximal wash current / ss - % pH7.4 or 8.2 Control (Y): steady-state wash current: after 100 nM
T1 construct: expressed in transfected cells
T1 sequence (P55926 1-526): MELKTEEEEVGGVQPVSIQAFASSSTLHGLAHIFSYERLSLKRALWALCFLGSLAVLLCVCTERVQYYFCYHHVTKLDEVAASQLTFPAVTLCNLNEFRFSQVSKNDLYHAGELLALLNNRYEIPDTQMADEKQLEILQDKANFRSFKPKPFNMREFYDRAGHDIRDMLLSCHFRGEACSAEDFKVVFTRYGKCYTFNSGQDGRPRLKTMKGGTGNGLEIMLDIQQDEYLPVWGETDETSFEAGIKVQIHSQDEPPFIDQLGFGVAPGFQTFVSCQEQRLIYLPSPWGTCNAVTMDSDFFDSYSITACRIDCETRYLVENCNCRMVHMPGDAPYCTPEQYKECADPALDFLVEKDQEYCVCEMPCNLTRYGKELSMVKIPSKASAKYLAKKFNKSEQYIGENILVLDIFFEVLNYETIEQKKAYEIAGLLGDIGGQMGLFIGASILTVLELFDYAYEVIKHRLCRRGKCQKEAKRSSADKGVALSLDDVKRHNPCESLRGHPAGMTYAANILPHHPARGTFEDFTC
Experimental: (§1) Chinese Hamster Ovary (CHO) cells stably expressing rat ASIC1a were cultured in Ham’s F12, supplemented with 10% FBS, 1% penicillin–streptomycin and 500 µg/mL G418 and incubated at 37 °C with 5% CO2. Transient transfections of rASIC1a and cASIC1 wild-type or mutant channels in CHO cells were performed with Lipofectamine 3000 (Thermo Fisher Scientific) according to the manufacturer’s recommendations. The green fluorescent protein (GFP) cDNA (at 1/10 the amount of channel cDNA) was co-transfected with channel cDNA to aid the identification of transfected cells under the microscope in patch clamp experiments. All cDNAs were sequence verified.
Cells were freshly dissociated with CellStripper (Corning) and dispersed in a chamber on the stage of an inverted microscope. Upon formation of the whole-cell conformation, the cell was lifted from the bottom of the chamber and placed at the tip of a tubing perfusing an extracellular solution containing (in mM): 149 NaCl, 2 CaCl2, 4 KCl, 1 MgCl2, 5 glucose, 10 HEPES, pH 7.4, 310 mOsm/L. Extracellular solutions at more basic or acidic pHs were made by titrating the above pH 7.4 solution with NaOH or HCl (5 mM MES was added to solutions at pH 6.0 and lower). Pipette electrodes were filled with an intracellular solution containing (in mM): 135 KCl, 4 MgATP, 0.3 Na2GTP, 10 EGTA, and 20 HEPES, pH 7.2, 290 mOsm/L.
(§2) All recordings were performed at room temperature using an Axopatch 200B amplifier and pClamp 11 software (Molecular Devices). Currents were measured by whole-cell patch clamp, digitized at 10 kHz and lowpass filtered at 2 kHz. Series resistance was 75% compensated. Responses were elicited by rapid perfusion of acidic solutions using the SF-77B Fast-Step Perfusion device (Warner Instruments) for 40 ms once every 30 s (unless indicated otherwise) and recorded till steady state was reached. The holding potential was 0 mV unless indicated otherwise.
Baseline values (i.e., current amplitudes at the conditioning pH) were subtracted to obtain responses evoked by the test pH. Responses were normalized for each cell before averaging (see figure legends for more detail on normalization for each type of experiment). Concentration–response data were fitted to a logistic function of the form: R = (A1–A2)/(1 + (C/C0)^h)+A2, where R is the normalized response, C is either pH or compound concentration, C0 is the pH/concentration at which half-maximal response occurs (pH50 or IC50), h is the Hill coefficient, and A1 and A2 are constants. Kinetic parameters were obtained by fitting the data with either a single or double exponential function. Fitted data are shown as solid, dashed, or dotted curves.

rASIC1a Y340A = biological target: T2, rASIC1a Y340A (Rattus norvegicus, UniProt P55926, Y340A); experiment: Inhibition of pH 6.0-induced current of mutant channel Y340A; type: cell-based
T2 construct: expressed in transfected cells; host or cells: CHO cells, transient transfection (GFP cDNA co-transfected separately)
T2 sequence (P55926 1-526 Y340A): T1 sequence (P55926 1-526) with Y340A
Experimental: as §1
Cells were freshly dissociated with CellStripper (Corning) and dispersed in a chamber on the stage of an inverted microscope. […]
as §2, with “Series resistance was 75% compensated.” left out, “The holding potential was 0 mV unless indicated otherwise.” left out

[1] = 100 nM, t = -50 s (wash starts at t = 0 s)
[2] = holding pH 7.4 (source data Fig. 2d)
[3] = holding pH 8.2 (source data Fig. 2d)

time constant of current inhibition (rat ASIC1a; 100 nM): 1.6 ± 0.1 s
time constant of current inhibition (rat ASIC1a; 1 µM): 0.2248 ± 0.0189 s
IC50 (rASIC1a Y340A): 260 ± 89.8 nM
Structure (SMILES): COc1ccc(Oc2ccc(-c3nc4cc(C(=N)N)ccc4[nH]3)cc2)cc1OC [JNJ-799760]

overshoot of maximum wash current above pre-block control level (rat ASIC1a; 100 nM, holding pH 7.4): > 50%
pH 6.8-induced current, % pH7.4 control (rat ASIC1a; 100 nM, t = 0 s): 4.9%
pH 6.8-induced current, % pH7.4 control (rat ASIC1a; 100 nM, t = -10 s): 4.7%
pH 6.8-induced current, % pH7.4 control (rat ASIC1a; 100 nM, t = -20 s): 3.6%
pH 6.8-induced current, % pH7.4 control (rat ASIC1a; 100 nM, t = -30 s): 3.3%
pH 6.8-induced current, % pH7.4 control (rat ASIC1a; 100 nM, t = -40 s): 4.5%
pH 6.8-induced current, % pH7.4 control (rat ASIC1a; [1]): 6.7%
pH 6.8-induced current, % pH8.2 control (rat ASIC1a; 100 nM, t = 0 s): 4.5%
pH 6.8-induced current, % pH8.2 control (rat ASIC1a; 100 nM, t = -10 s): 7.4%
pH 6.8-induced current, % pH8.2 control (rat ASIC1a; 100 nM, t = -20 s): 4.9%
pH 6.8-induced current, % pH8.2 control (rat ASIC1a; 100 nM, t = -30 s): 4.9%
pH 6.8-induced current, % pH8.2 control (rat ASIC1a; 100 nM, t = -40 s): 5.7%
pH 6.8-induced current, % pH8.2 control (rat ASIC1a; [1]): 47.2%
time constant of current inhibition (rat ASIC1a; 100 nM): 3.6 ± 0.2 s
time constant of wash from inhibition (rat ASIC1a; 100 nM, wash at pH 7.8, pH 6.0-evoked currents): 12.6 ± 0.6 s
time constant of wash from inhibition (rat ASIC1a; 100 nM, wash at pH 8.2, pH 6.0-evoked currents): 12.7 ± 1.3 s
max - % pH7.4 or 8.2 Control (Y): maximal wash current (rat ASIC1a; [2]): 154.4%
ss - % pH7.4 or 8.2 Control (Y): steady-state wash current (rat ASIC1a; [2]): 95.3%
max - % pH7.4 or 8.2 Control (Y): maximal wash current (rat ASIC1a; [3]): 96.9%
ss - % pH7.4 or 8.2 Control (Y): steady-state wash current (rat ASIC1a; [3]): 96.8%
pH 6.8-induced current, % pH7.4 control (rat ASIC1a; wash after 100 nM, t = 10 s): 36.5%
pH 6.8-induced current, % pH7.4 control (rat ASIC1a; wash after 100 nM, t = 20 s): 90.8%
pH 6.8-induced current, % pH7.4 control (rat ASIC1a; wash after 100 nM, t = 30 s): 132.5%
pH 6.8-induced current, % pH7.4 control (rat ASIC1a; wash after 100 nM, t = 40 s): 161.6%
pH 6.8-induced current, % pH7.4 control (rat ASIC1a; wash after 100 nM, t = 50 s): 157.3%
pH 6.8-induced current, % pH7.4 control (rat ASIC1a; wash after 100 nM, t = 60 s): 153.5%
pH 6.8-induced current, % pH7.4 control (rat ASIC1a; wash after 100 nM, t = 70 s): 157.1%
pH 6.8-induced current, % pH7.4 control (rat ASIC1a; wash after 100 nM, t = 80 s): 151.7%
pH 6.8-induced current, % pH7.4 control (rat ASIC1a; wash after 100 nM, t = 90 s): 149.4%
pH 6.8-induced current, % pH7.4 control (rat ASIC1a; wash after 100 nM, t = 100 s): 151.7%
pH 6.8-induced current, % pH7.4 control (rat ASIC1a; wash after 100 nM, t = 110 s): 141.4%
pH 6.8-induced current, % pH7.4 control (rat ASIC1a; wash after 100 nM, t = 120 s): 127.3%
pH 6.8-induced current, % pH7.4 control (rat ASIC1a; wash after 100 nM, t = 130 s): 116.2%
pH 6.8-induced current, % pH7.4 control (rat ASIC1a; wash after 100 nM, t = 140 s): 120.1%
pH 6.8-induced current, % pH7.4 control (rat ASIC1a; wash after 100 nM, t = 150 s): 108.5%
pH 6.8-induced current, % pH7.4 control (rat ASIC1a; wash after 100 nM, t = 160 s): 117.3%
pH 6.8-induced current, % pH7.4 control (rat ASIC1a; wash after 100 nM, t = 170 s): 108.8%
pH 6.8-induced current, % pH7.4 control (rat ASIC1a; wash after 100 nM, t = 180 s): 100.4%
pH 6.8-induced current, % pH7.4 control (rat ASIC1a; wash after 100 nM, t = 190 s): 95.1%
pH 6.8-induced current, % pH7.4 control (rat ASIC1a; wash after 100 nM, t = 200 s): 97.0%
pH 6.8-induced current, % pH7.4 control (rat ASIC1a; wash after 100 nM, t = 210 s): 100.5%
pH 6.8-induced current, % pH7.4 control (rat ASIC1a; wash after 100 nM, t = 220 s): 101.0%
pH 6.8-induced current, % pH8.2 control (rat ASIC1a; wash after 100 nM, t = 10 s): 18.2%
pH 6.8-induced current, % pH8.2 control (rat ASIC1a; wash after 100 nM, t = 20 s): 43.8%
pH 6.8-induced current, % pH8.2 control (rat ASIC1a; wash after 100 nM, t = 30 s): 63.8%
pH 6.8-induced current, % pH8.2 control (rat ASIC1a; wash after 100 nM, t = 40 s): 78.5%
pH 6.8-induced current, % pH8.2 control (rat ASIC1a; wash after 100 nM, t = 50 s): 78.9%
pH 6.8-induced current, % pH8.2 control (rat ASIC1a; wash after 100 nM, t = 60 s): 93.2%
pH 6.8-induced current, % pH8.2 control (rat ASIC1a; wash after 100 nM, t = 70 s): 87.4%
pH 6.8-induced current, % pH8.2 control (rat ASIC1a; wash after 100 nM, t = 80 s): 90.7%
pH 6.8-induced current, % pH8.2 control (rat ASIC1a; wash after 100 nM, t = 90 s): 90.7%
pH 6.8-induced current, % pH8.2 control (rat ASIC1a; wash after 100 nM, t = 100 s): 91.5%
pH 6.8-induced current, % pH8.2 control (rat ASIC1a; wash after 100 nM, t = 110 s): 90.6%
pH 6.8-induced current, % pH8.2 control (rat ASIC1a; wash after 100 nM, t = 120 s): 89.7%
pH 6.8-induced current, % pH8.2 control (rat ASIC1a; wash after 100 nM, t = 130 s): 92.5%
pH 6.8-induced current, % pH8.2 control (rat ASIC1a; wash after 100 nM, t = 140 s): 93.0%
pH 6.8-induced current, % pH8.2 control (rat ASIC1a; wash after 100 nM, t = 150 s): 92.2%
pH 6.8-induced current, % pH8.2 control (rat ASIC1a; wash after 100 nM, t = 160 s): 93.0%
IC50 (rASIC1a Y340A): 572 ± 177 nM
Structure (SMILES): Cc1cc(N2CC(Oc3cc(F)c4c(N)n[nH]c4c3)C2)c(F)cn1 [JNJ-67869386]
